Measured values reported in patent US9949486B2, “Agrochemical composition comprising a N,N#-disubstituted (thio)urea for the improvement of crop productivity” (Crop Intellect Ltd., priority 2014, dated 2018).

Key:
Assay type in all cases: in vivo
Lettuce = Lettuce greenhouse trial, foliar treatment
Procedure: (§1) Lettuce, beans, wheat and tomatoes were selected as plants to test the efficacy of the invention. Short term crops were grown in the greenhouse to ensure controlled condition and long term crops were grown outdoors in replicated trials. All relevant parameters to evaluate efficacy were tested including chlorophyll content, sugar levels, Mg and Fe tissue content, yield and quality characteristics. All trials were performed to good experimental practice (GEP) standards with adequate replication to conform to statistical comparisons. Environmental condition were monitored and kept the same between treatments for evaluation. John Innes soil based compost with low nutrient contents was used for the experiments and sieved to ensure uniformity. The applications were made to be applied at the equivalent of 5 lt/ha of end product in 180 lt of water. Treatments were administered foliarly just before runoff point. The magnesium and iron were in the form of Sulphate.

Beans = Beans greenhouse trial, foliar treatment; conditions: equivalent of 5 lt/ha
Procedure: as §1, with “Sulphate. […] Larger plants expressed as weight per plant was observed together with an increase in chlorophyll content, Mg and Fe content in the plant tissue and leaf diameter (which promotes resource capture). A reduction in internode length was also observed which is favourable for many greenhouse and outdoor vegetable crops.” for “Sulphate.”

Tomatoes = Tomatoes trial under glass, foliar treatment; conditions: equivalent of 5 lt/ha
Procedure: as §1
The trial on tomatoes under glass had shown a significant increase in yield and quality characteristics with the application of the present invention. […] The internode length reduced on average by 20% which is desirable for tomato plants grown under glass due to the infrastructure restrictions and efforts towards vegetative growth.

[1] = lettuce, foliar, equivalent of 5 lt/ha

Q: What does the source list for O=C(Nc1ccccc1)Nc1ccccc1 [DPU, 1,3-diphenylurea]?
A: Yield (Lettuce; lettuce fresh weight (yield st. error ±8), foliar, equivalent of 5 lt/ha of end product in 180 lt of water): 213 g; Fe content (mg/kg dw) (Lettuce; lettuce tissue, dry weight, foliar, equivalent of 5 lt/ha): 254 mg/kg dw; Mg content (mg/kg fw) (Lettuce; lettuce tissue, fresh weight, foliar, equivalent of 5 lt/ha): 480 mg/kg fw; Chlorophyll (mg/cm^2) (Lettuce; [1]): 0.029 mg/cm^2; Leaf number (Lettuce; [1]): 28; Sugar level (%) (Lettuce; [1]): 5.5%; Weight loss (%) (Lettuce; lettuce, weight loss after 7 days in ambient temperature (indication of shelf life)): 22%; Fe content (Beans; beans plant tissue): 86 mg/kg; Mg content (%) (Beans; beans plant tissue): 0.42%; Chlorophyll (mg/cm^2) (Beans; beans): 0.025 mg/cm^2; Internode length (Beans; beans): 7; Leaf diameter (cm) (Beans; beans): 7.8 cm; Yield (Beans; beans, fresh weight of above ground plant at 6 wks (st. error ±10)): 364 g; Yield (Tomatoes; average fruit fresh weight): 132 g; Chlorophyll (mg/cm^2) (Tomatoes): 0.031 mg/cm^2; Firmness (turgor MPa) (Tomatoes): 0.08 MPa; Internode length (Tomatoes): 8.1; Sugar level (%) (Tomatoes): 6.8%
